The subject of the assay is ANKA strain of P. berghei. Nature of the assay: Single dose STI in vivo screen in infected mice. On the set-up: species or system Plasmodium berghei. Conditions: for Survival (days) 3 mg/kg SSV po / Activity (%) 3 mg/kg SSV po: single 3 mg/kg po in SSV; for Survival (days) 10 mg/kg SSV po: single 10 mg/kg po in SSV; for Survival (days) 10 mg/kg SSV po / Survival (days) 10 mg/kg po / Survival (days) 10 mg/kg sc: untreated 6-7 days; for Survival (days) 10 mg/kg po: single 10 mg/kg po in 3% ethanol and 7% Tween 80; for Activity (%) 10 mg/kg po: single 10 mg/kg po in 3% ethanol and 7% Tween 80 on day 1 post-infection; for Survival (days) 10 mg/kg sc: single 10 mg/kg sc in 3% ethanol and 7% Tween 80; for Activity (%) 10 mg/kg sc: single 10 mg/kg sc in 3% ethanol and 7% Tween 80 on day 1 post-infection. The procedure:
In the single dose STI in vivo screen, Moro SPF or NMRI mice infected with the ANKA strain of P. berghei (groups of three mice) were treated on day one post-infection with trioxolanes dissolved or suspended in 3% ethanol and 7% Tween 80. […] SSV consists of 0.5% w/v CMC, 0.5% v/v benzyl alcohol, 0.4% v/v Tween 80, and 0.9% w/v sodium chloride in water. Antimalarial activity was measured by percent reduction in parasitemia on day three post-infection and survival times compared to an untreated control group. Survival to day 30 post-infection is considered to be a cure. […] Other factors influencing antimalarial activity include the stability of carbon radicals formed by β-scission subsequent to the initial electron transfer to the peroxide bond and the influence of steric effects remote from the peroxide bond on the interactions between carbon radicals and potential drug targets.
Moro NMRI male mice (Fu Albino specific pathogen free) weighing 18±2 g were infected intravenously (i.v.) with 2×10^7 P. berghei ANKA strain-infected erythrocytes from donor mice on day 0 of the experiment. From donor mice with circa 30% parasitemia, heparinized blood was taken and diluted in physiological saline to 10^8 parasitized erythrocytes per ml. An aliquot (0.2 ml) of this suspension was injected i.v. into experimental and control groups of mice. […] Throughout the experiments, mice were kept in groups of three or five animals in Makrolon type II cages in an air-conditioned animal room at 22 to 23° C.
They were administered per os (p.o.) in a total volume of 0.01 ml per gram of mouse. The activity of the compound was determined by a variety of methods outlined in subsequent sections. Survival time was also recorded, and survival to day 30 post-infection was considered to be a cure.

[1] abbreviates: percent reduction in parasitemia on day 3.
Setting [2] is: single 10 mg/kg po in standard suspending vehicle (SSV) on day 1 post-infection, percent reduction in parasitemia on day 3.

For `C[C@H](N)C(=O)NC[C@H]1CC[C@]2(CC1)OO[C@]1(O2)C2CC3CC(C2)CC1C3` [OZ335], the “Survival (days) 3 mg/kg SSV po” value amounted to 10.0 days and the “Survival (days) 10 mg/kg SSV po” value was 9.2 days. The “Activity (%) 3 mg/kg SSV po” value under setting [1] stood at 97%.
As for `[O-][n+]1ccccc1SC[C@H]1CC[C@]2(CC1)OO[C@]1(O2)C2CC3CC(C2)CC1C3` [OZ328], the “Survival (days) 3 mg/kg SSV po” value stood at 7.6 days and the “Survival (days) 10 mg/kg SSV po” value worked out at 8.6 days. Besides, the “Activity (%) 3 mg/kg SSV po” value under setting [1] is listed as 75%. For the same molecule, the “Activity (%) 10 mg/kg SSV po” value under setting [2] amounted to 99.77%.
In the same order, the values of `O=C(CNC(=O)c1cccnc1)NC[C@H]1CC[C@]2(CC1)OO[C@]1(O2)C2CC3CC(C2)CC1C3` [OZ316] are 8.0 days, 10.0 days, 7% and 69%.
The matching figures for `O=C(C[C@H]1CC[C@]2(CC1)OO[C@]1(O2)C2CC3CC(C2)CC1C3)N1CCN(c2ncccn2)CC1` [OZ314]: 6.6/6.6 days, 6.6/6.6 days, 11% and 13%.
Regarding `Cc1ccc(NC(=O)N2CCC3(CC2)OOC2(O3)C3CC4CC(C3)CC2C4)cc1` (stereo not shown) [OZ142], the “Survival (days) 10 mg/kg po” value turned out to be 6.0 days, the “Survival (days) 10 mg/kg SSV po” value turned out to be 6.3 days and the “Survival (days) 10 mg/kg sc” value is on record as 14.3 days. Besides, under setting [1], the “Activity (%) 10 mg/kg po” value was found to be 0% and the “Activity (%) 10 mg/kg sc” value was 99.98%. For the same molecule, the “Activity (%) 10 mg/kg SSV po” value under setting [2] amounted to 2%.
As for `O=C(Nc1ccc(Cl)cc1)N1CCC2(CC1)OOC1(O2)C2CC3CC(C2)CC1C3` (stereo not shown) [OZ192, Adamantane-2-spiro-3′-8′-[(4′-chlorophenylamino)carbonyl]-1′,2′,4′-trioxa-8′-azaspiro[4.5]decane], the “Survival (days) 10 mg/kg po” value amounted to 6.0 days, the “Survival (days) 10 mg/kg SSV po” value is reported as 7.0 days and the “Survival (days) 10 mg/kg sc” value is reported as 13.7 days. Under setting [1], the “Activity (%) 10 mg/kg po” value is given as 38% and the “Activity (%) 10 mg/kg sc” value worked out at 99.98%. Also, the “Activity (%) 10 mg/kg SSV po” value under setting [2] came to 45%.
In the case of `NC(=O)c1cn(C[C@H]2CC[C@]3(CC2)OO[C@]2(O3)C3CC4CC(C3)CC2C4)cn1` [OZ320], under setting [1], the “Activity (%) 3 mg/kg SSV po” value is 92%.
`CCOC(=O)CNC[C@H]1CC[C@]2(CC1)OO[C@]1(O2)C2CC3CC(C2)CC1C3` [OZ290]: the “Survival (days) 3 mg/kg SSV po” value stood at 7.0 days and the “Survival (days) 10 mg/kg SSV po” value is 9.0 days. Under setting [1], the “Activity (%) 3 mg/kg SSV po” value was found to be 95%. The “Activity (%) 10 mg/kg SSV po” value under setting [2] is on record as 99.64%.
As for `OC1(Cc2nc3ccccc3s2)CCC2(CC1)OOC1(O2)C2CC3CC(C2)CC1C3` (stereo not shown) [OZ276], the “Survival (days) 10 mg/kg SSV po” value is 7.3/ND days. For the same molecule, the “Activity (%) 10 mg/kg SSV po” value under setting [2] is 17/ND %.
On to `NCCNC(=O)C[C@H]1CC[C@]2(CC1)OO[C@]1(O2)C2CC3CC(C2)CC1C3` [OZ305], for which the “Survival (days) 3 mg/kg SSV po” value came to 9.6 days and the “Survival (days) 10 mg/kg SSV po” value was 9.2 days. For the same molecule, under setting [1], the “Activity (%) 3 mg/kg SSV po” value was 96%.
The matching figures for `NC(=O)c1cncn1C[C@H]1CC[C@]2(CC1)OO[C@]1(O2)C2CC3CC(C2)CC1C3` [OZ321]: 9.8 days, 14.0 days and 64%.
The matching figures for `Nc1nccnc1C(=O)NC[C@H]1CC[C@]2(CC1)OO[C@]1(O2)C2CC3CC(C2)CC1C3` [OZ330]: 7.2 days, 12.2 days and 82%.
The matching figures for `O=CN1CCN(C[C@H]2CC[C@]3(CC2)OO[C@]2(O3)C3CC4CC(C3)CC2C4)CC1` [OZ303]: 7.6 days, 8.6 days and 69%.
`CS(=O)(=O)N(CC(N)=O)C[C@H]1CC[C@]2(CC1)OO[C@]1(O2)C2CC3CC(C2)CC1C3` [OZ308]: the “Survival (days) 3 mg/kg SSV po” value is on record as 6.6 days and the “Survival (days) 10 mg/kg SSV po” value worked out at 7.8 days. Moreover, the “Activity (%) 3 mg/kg SSV po” value under setting [1] is recorded as 30%. In addition, under setting [2], the “Activity (%) 10 mg/kg SSV po” value is recorded as 86%.
For the molecule `Cn1nnnc1SC[C@H]1CC[C@]2(CC1)OO[C@]1(O2)C2CC3CC(C2)CC1C3` [OZ331], the “Survival (days) 3 mg/kg SSV po” value stood at 7.0 days and the “Survival (days) 10 mg/kg SSV po” value was 9.0 days. Also, the “Activity (%) 3 mg/kg SSV po” value under setting [1] came out at 66%.
Take `O=C(NC[C@H]1CC[C@]2(CC1)OOC1(O2)C2CC3CC(C2)CC1C3)c1ccccc1O` (stereo partly shown) [OZ280]: the “Survival (days) 10 mg/kg SSV po” value is given as 5.7ND days. Besides, the “Activity (%) 10 mg/kg SSV po” value (po, 10 mg/kg) is reported as 0/ND %.
On to `CCOC(=O)CCNCC1CCC2(CC1)OOC1(O2)C2CC3CC(C2)CC1C3.Cc1ccc(S(=O)(=O)O)cc1` (stereo not shown) [OZ318], for which the “Survival (days) 3 mg/kg SSV po” value is 7.6 days and the “Survival (days) 10 mg/kg SSV po” value was 12.4 days. Moreover, under setting [1], the “Activity (%) 3 mg/kg SSV po” value is on record as 29%. Further, under setting [2], the “Activity (%) 10 mg/kg SSV po” value came to 88%.
Take `Cn1nnnc1S(=O)(=O)C[C@H]1CC[C@]2(CC1)OO[C@]1(O2)C2CC3CC(C2)CC1C3` [OZ332]: the “Survival (days) 3 mg/kg SSV po” value is 6.0/6.0 days and the “Survival (days) 10 mg/kg SSV po” value is 6.0/6.0 days. Under setting [1], the “Activity (%) 3 mg/kg SSV po” value is recorded as 0%. Moreover, the “Activity (%) 10 mg/kg SSV po” value under setting [2] is given as 8%.
With `NC(=O)[C@@H]1CCCN1C[C@H]1CC[C@]2(CC1)OO[C@]1(O2)C2CC3CC(C2)CC1C3` [OZ327], the “Survival (days) 3 mg/kg SSV po” value amounted to 7.0 days and the “Survival (days) 10 mg/kg SSV po” value is 9.8 days. Besides, under setting [1], the “Activity (%) 3 mg/kg SSV po” value was 72%. Further, under setting [2], the “Activity (%) 10 mg/kg SSV po” value stood at 97%.
The matching figures for `O=C(NC[C@H]1CC[C@]2(CC1)OOC1(O2)C2CC3CC(C2)CC1C3)c1ccc(O)nc1` (stereo partly shown) [OZ282]: 7.2 days, 8.3 days, 53% and 98.5%.
In the same order, the values of `N=C(N)NC(=O)C[C@H]1CC[C@]2(CC1)OO[C@]1(O2)C2CC3CC(C2)CC1C3` [OZ341] are 7.0 days, 8.0 days, 32% and 97%.
Consider `NC(=O)C1CCN(C(=O)C[C@H]2CC[C@]3(CC2)OO[C@]2(O3)C3CC4CC(C3)CC2C4)CC1` [OZ311], for which the “Survival (days) 3 mg/kg SSV po” value was 7.0 days and the “Survival (days) 10 mg/kg SSV po” value was determined as 8.6 days. Besides, under setting [1], the “Activity (%) 3 mg/kg SSV po” value is 40%. In addition, the “Activity (%) 10 mg/kg SSV po” value under setting [2] came out at 80%.
In the same order, the values of `NC(=O)c1ccc(NC[C@H]2CC[C@]3(CC2)OOC2(O3)C3CC4CC(C3)CC2C4)cc1` (stereo partly shown) [OZ286] are 7.0 days, 8.7 days, 60% and 99.73%.
On to `O=C(c1ccncc1)N1CCC2(CC1)OOC1(O2)C2CC3CC(C2)CC1C3` (stereo not shown) [OZ100, Adamantane-2-spiro-3′-8′-(4′-pyridinylcarbonyl)-1′,2′,4′-trioxa-8′-azaspiro[4.5]decane], for which the “Survival (days) 10 mg/kg po” value is reported as 6.7 days, the “Survival (days) 10 mg/kg SSV po” value is 6.3 days and the “Survival (days) 10 mg/kg sc” value is 7.0 days. Further, under setting [1], the “Activity (%) 10 mg/kg po” value was 61% and the “Activity (%) 10 mg/kg sc” value is given as 80%. For the same molecule, the “Activity (%) 10 mg/kg SSV po” value under setting [2] is listed as 36%.
Regarding `O=C(N1CCOCC1)N1CCC2(CC1)OOC1(O2)C2CC3CC(C2)CC1C3` (stereo not shown) [OZ188, Adamantane-2-spiro-3′-8′-(4′-morpholinylcarbonyl)-1′,2′,4′-trioxa-8′-azaspiro[4.5]decane], the “Survival (days) 10 mg/kg po” value is given as 8.7 days, the “Survival (days) 10 mg/kg SSV po” value stood at 10.0 days and the “Survival (days) 10 mg/kg sc” value is listed as 9.0 days. Besides, under setting [1], the “Activity (%) 10 mg/kg po” value is recorded as 93% and the “Activity (%) 10 mg/kg sc” value is 99.87%. Moreover, under setting [2], the “Activity (%) 10 mg/kg SSV po” value was 98%.
In the case of `c1cncc(NC[C@H]2CC[C@]3(CC2)OO[C@]2(O3)C3CC4CC(C3)CC2C4)c1` [OZ293], the “Survival (days) 3 mg/kg SSV po” value came to 7.4 days and the “Survival (days) 10 mg/kg SSV po” value was determined as 8.8 days. The “Activity (%) 3 mg/kg SSV po” value under setting [1] is on record as 77%. The “Activity (%) 10 mg/kg SSV po” value under setting [2] turned out to be 99.58%.
In the same order, the values of `c1cnc(NC[C@H]2CC[C@]3(CC2)OO[C@]2(O3)C3CC4CC(C3)CC2C4)nc1` [OZ326] are 6.0 days, 7.4 days, 7% and 80%.

The values above are taken from patent US6825230B2, “Spiro and dispiro 1,2,4-trixolane antimalarials” (Medicines for Malaria Venture MMV, priority 2002, dated 2004).
